Assay results reported in patent publication US20020009436A1, “Methods and compositions for inhibiting adhesion by microorganisms” (priority 1999, published 2002).
Like-named read-outs stand apart in the source and are kept apart here.

Experiments:
[1] = tested on: type 1-fimbriated and P-fimbriated E. coli; assay: Growth inhibition of E. coli; type: cell-based; details: ampicillin 1 mg/ml to 0.015 mg/ml; polyphenol oxidase 1128 to 17.5 units/ml; asparaginase 20 to 0.31 units/ml; data not shown
Procedure: Similar and/or art recognized methods were used to monitor the effects of asparaginase on growth of other microbes including two strains of E. coli, S. pyogenes, Klebsiella pneumoniae, Bacillus cereus, and Proteus vulgaris. Both type 1-fimbriated and P-fimbriated E. coli were incubated with polyphenol oxidase, asparaginase, and ampicillin to test the ability of these agents to inhibit the growth of the bacteria.

[2] = tested on: B. fragilis (adhesin) / A. naeslundii ATCC 12104 (receptor); assay: Coaggregation B. fragilis / A. naeslundii ATCC 12104; details: B. fragilis (adhesin) enzyme treated; polyphenol oxidase 90 U/ml
Procedure: S. sanguis 10556, A. naeslundii strains 12104 and T14V and E. coli were grown static cultures in Todd-Hewitt broth (BBL Microbiology Systems, Cockeysville, Md.). P. gingivalis W50, A. actinomycetemcomitans and C. ochracea were grown in brain heart infusion broth (BBL). F. nucleatum 22586 and P. intermedia 25611 were grown in modified Schaedler broth (BBL). All oral species except S. sanguis 10556 were incubated at 37° C. as static cultures under an anaerobic atmosphere containing H2, CO2 and N2(10:10:80) with GasPaks (BBL). S. sanguis was incubated at 37° C. as static cultures in 5% CO2.
Bacteria were harvested in the mid to late exponential growth phase by centrifugation (10,000×g for 10 min at 4° C.). The cells were washed twice in coaggregation buffer (30 mM 3-[N-morpholino]propanesulfonic acid (MOPS), pH 7.0) and adjusted to an optical density of 0.6-0.8 at 540 nm (1-cm path). […]
Coaggregation was assessed by turbidity changes. Following mixing of the cells for 10 s on a Vortex mixer, absorbance readings were made every 30 min. The percentage of coaggregation was calculated from the following formula: Percent coaggregation=[OD540(A)+OD540(B)−OD540(A+B)]/(OD540(A)+OD540(B)), where A is the control containing cells of one strain, B is the control containing cells of the other strain, and A+B is the reaction mixture containing both cells. […]

polyphenol oxidase [3] = assay: Effect of inhibiting polyphenol oxidase activity on dextran aggregation; type: cell-based; details: for effect on polyphenol oxidase induced inactivation: protease inhibitors added before polyphenol oxidase
Procedure: (§1) The standard rate assay published by Drake et al. (Drake D. et al. Infect. Immun. 56:1864-1872 (1988)) was used to study the interaction of S. sobrinus 6715 glucan-binding lectin with high molecular weight dextran. Briefly, bacterial suspensions were adjusted to an optical density of 0.75-0.90 in PBS, and 3-ml suspensions were added to test tubes (13×100 mm). Dextran T-2000 was added at a final concentration of 10 1μg/ml and the suspensions were vortexed for 5 sec. Control tubes received PBS. The decrease in optical density was continuously monitored spectrophotometrically for 5 min. Rate constants were obtained from the slopes of first-order plots of ln A/A0 (A=observed optical density; A0 optical density at time zero) versus time in minutes. Each sample was assayed at least three times.
Cells were suspended in phosphate buffer (20 mM, pH 6.5) and treated with either polyphenol oxidase (Worthington Biochemical Corporation, Freehold N.J., Lot 37A889) (1260 U/ml) for 1 h at 37° C. with rotary shaking (150 rev/min), then washed twice with cold PBS. Inhibitors (all from Sigma), when present, were added before polyphenol oxidase addition at the following concentrations: phenylmethylsulfonyl fluoride (PMSF) 500 μM; leupeptin, 500 μg/ml; ethylenediaminetetracetic acid (EDTA), 5 mM, potassium chloride 200 mM; polyvinylpyrrolidone, 500 μg/m; ascorbic acid, 3 mM; lactic acid, 10%.

[4] = tested on: E. coli possessing type 1 fimbriae / Saccharomyces cerevisiae cells; assay: Adhesion of E. coli to yeast; type: cell-based
Procedure: Materials and methods were generally as described in the previous Examples, but slightly modified for observing adhesion by E. coli to yeast. […] Cells were washed 2× in PBS and suspended in PB. Cells were treated with polyphenol oxidase at 37° C., washed 2×, and resuspended in PBS. E. coli (5×10^8 cells) were incubated with 1×10^5 Saccharomyces cerevisiae cells in a 3 ml volume and rotated with an end-over-end motion at 37° C. for 30 min. Suspensions were harvested, washed 2× in PBS and resuspended in 300 μl PBS. Methyl-α-D-mannose was added to some reaction mixtures. Ten μl samples were withdrawn and placed on a microscope slide, heat-fixed, stained with crystal violet for 2 min, rinsed and dried. Preparations were viewed at 1000× with phase-contrast microscopy. Numbers of bacteria bound to yeast cells were tabulated.

polyphenol oxidase [5] = assay: Effect of inhibiting polyphenol oxidase activity on dextran aggregation; type: cell-based; details: inhibitor concentration 2.5%
[6] = tested on: S. sobrinus 6715 glucan-binding lectin; assay: Aggregation of S. sobrinus with high molecular weight dextran T-2000 (standard rate assay); type: cell-based, Streptococcus sobrinus; details: dextran T-10 1 mg/ml or glycogen 2.5 mg/ml before polyphenol oxidase treatment
Procedure: S. sobrinus 6715 was maintained on tryptic soy agar (Difco, Detroit, Mich.) and grown for experiments in Terleckyj's defined medium or tryptic soy broth (TSB) (Difco) pretreated with dextranase (1 mg of enzyme per g dry medium) and invertase (5 mg per g dry medium) for 2 h each in 5% CO2 at 37° C. for 16-18h. Cultures were centrifuged at 12,000×g for 10 min and washed twice with cold phosphate buffered saline (PBS, 20 mM, pH 7.2). Cells were suspended in PBS to an optical density of 0.8 (A540). Cultures grown in TSB were harvested and suspended in PBS and subsequently treated with dextranase for 1 h, followed by washing two times in PBS.
as §1, with “Each sample was assayed at least three times.” left out

[7] = known polyphenol oxidase inhibitors

Compound: CC1(C)S[C@@H]2[C@H](NC(=O)[C@H](N)c3ccccc3)C(=O)N2[C@H]1C(=O)O [ampicillin, reference compound]
- inhibition of growth of P-fimbriated E. coli [1]: inhibited the growth
- inhibition of growth of type 1-fimbriated E. coli [1]: inhibited the growth

Compound: Per: horseradish peroxidase
- Inhibition % of coaggregation [2]: 11%

Compound: CC(=O)N[C@@H](CC(C)C)C(=O)N[C@@H](CC(C)C)C(=O)N[C@H](C=O)CCCNC(=N)N [leupeptin]
- Percent Inhibition of Polyphenol Oxidase Induced Reduction in Aggregation (polyphenol oxidase [3]; inhibitor concentration 500 μg/ml): 0%
- effect on polyphenol oxidase induced inactivation (polyphenol oxidase [3]): completely inhibited

Compound: COC1OC(CO)C(O)C(O)C1O [Methyl-α-mannose, Methyl-α-D-mannose]
- effect of preincubating E. coli before polyphenol oxidase treatment [4]: eliminated polyphenol oxidase mediated reduction of adhesion
- attachment of control cells to Saccharomyces ([4]; added to control cells): prevented their attachment

Compound: [Cl-].[K+] [KCl, potassium chloride]
- Percent Inhibition of Polyphenol Oxidase Induced Reduction in Aggregation (polyphenol oxidase [5]): 100%
- effect on the effects of polyphenol oxidase on glucan aggregation (polyphenol oxidase [3]; [7]): reduced the effects

Compound: glycogen [reference compound]
- effect of pre-incubating the bacteria with carbohydrate on the polyphenol oxidase inhibition of aggregation [6]: no effect

Compound: O=C1O[C@H]([C@@H](O)CO)C(O)=C1O [ascorbic acid]
- Percent Inhibition of Polyphenol Oxidase Induced Reduction in Aggregation (polyphenol oxidase [3]; inhibitor concentration 3 mM): 100%
- effect on the effects of polyphenol oxidase on glucan aggregation (polyphenol oxidase [3]; [7]): reduced the effects

Compound: O=C(O)CN(CCN(CC(=O)O)CC(=O)O)CC(=O)O [EDTA, ethylenediaminetetracetic acid]
- Percent Inhibition of Polyphenol Oxidase Induced Reduction in Aggregation (polyphenol oxidase [3]): 100%
- effect on the effects of polyphenol oxidase on glucan aggregation (polyphenol oxidase [3]): reduced the effects

Compound: O=S(=O)(F)Cc1ccccc1 [PMSF, phenylmethylsulfonyl fluoride]
- Percent Inhibition of Polyphenol Oxidase Induced Reduction in Aggregation (polyphenol oxidase [3]; inhibitor concentration 500 μM): 0%
- effect on polyphenol oxidase induced inactivation (polyphenol oxidase [3]): completely inhibited

Compound: CC(O)C(=O)O (stereo not drawn) [lactic acid]
- Percent Inhibition of Polyphenol Oxidase Induced Reduction in Aggregation (polyphenol oxidase [3]; inhibitor concentration 10%): 92 (+/−8) Percent
- effect on the effects of polyphenol oxidase on glucan aggregation (polyphenol oxidase [3]; [7]): reduced the effects
